Source: ChEMBL document CHEMBL4145445, “Design, synthesis and biological assessment of new thiazolylhydrazine derivatives as selective and reversible hMAO-A inhibitors” (Eur J Med Chem, 2018)

Tests used:
Homo sapiens = species: Homo sapiens; assay: Selectivity index, ratio of IC50 for human MAO-B to IC50 for human MAO-A
[1] = target: T1, Amine oxidase [flavin-containing] A (Homo sapiens, UniProt P21397); assay: Inhibition of human MAO-A at 10^-4 to 10^-3 M using tyramine hydrochloride as substrate after 30 mins by Amplex Red reagent based horseradish peroxidase enzyme-coupled fluorescence assay relative to control; conditions: 0.5 h
T1 sequence (P21397 whole entry): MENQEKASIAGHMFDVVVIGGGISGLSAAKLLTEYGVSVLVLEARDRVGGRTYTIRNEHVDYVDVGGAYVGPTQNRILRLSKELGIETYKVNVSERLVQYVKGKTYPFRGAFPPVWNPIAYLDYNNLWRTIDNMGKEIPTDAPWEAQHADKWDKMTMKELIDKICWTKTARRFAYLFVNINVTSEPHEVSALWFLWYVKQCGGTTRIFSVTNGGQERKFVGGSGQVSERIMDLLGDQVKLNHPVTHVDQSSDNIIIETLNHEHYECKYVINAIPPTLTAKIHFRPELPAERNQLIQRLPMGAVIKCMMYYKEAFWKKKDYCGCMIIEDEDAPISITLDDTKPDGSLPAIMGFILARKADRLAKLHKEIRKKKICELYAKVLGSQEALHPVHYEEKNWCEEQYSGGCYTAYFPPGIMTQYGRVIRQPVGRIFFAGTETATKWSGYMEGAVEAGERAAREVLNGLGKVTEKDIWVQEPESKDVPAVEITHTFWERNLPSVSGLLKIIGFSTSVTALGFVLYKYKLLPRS

[2] = target: T2, Amine oxidase [flavin-containing] B (Homo sapiens, UniProt P27338); assay: Inhibition of human MAO-B using tyramine hydrochloride as substrate after 30 mins by Amplex Red reagent based horseradish peroxidase enzyme-coupled fluorescence assay
T2 sequence (P27338 whole entry): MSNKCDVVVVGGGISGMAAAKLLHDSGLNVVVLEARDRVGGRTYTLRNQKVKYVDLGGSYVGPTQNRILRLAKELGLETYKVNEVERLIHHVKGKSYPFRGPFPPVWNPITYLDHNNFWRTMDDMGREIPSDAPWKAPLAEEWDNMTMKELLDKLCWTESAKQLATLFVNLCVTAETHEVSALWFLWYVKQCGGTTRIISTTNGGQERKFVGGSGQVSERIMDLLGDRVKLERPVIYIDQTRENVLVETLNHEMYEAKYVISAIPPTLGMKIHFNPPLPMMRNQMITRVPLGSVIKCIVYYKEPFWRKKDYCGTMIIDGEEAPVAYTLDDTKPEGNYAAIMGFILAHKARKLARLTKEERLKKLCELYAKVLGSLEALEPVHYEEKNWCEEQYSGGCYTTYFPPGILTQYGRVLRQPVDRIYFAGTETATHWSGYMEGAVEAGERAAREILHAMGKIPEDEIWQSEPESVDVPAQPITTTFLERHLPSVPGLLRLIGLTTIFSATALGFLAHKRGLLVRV

[3] = target: T1, Amine oxidase [flavin-containing] A; assay: Inhibition of human MAO-A using tyramine hydrochloride as substrate after 30 mins by Amplex Red reagent based horseradish peroxidase enzyme-coupled fluorescence assay
[4] = target: T2, Amine oxidase [flavin-containing] B; assay: Inhibition of human MAO-B at 10^-4 to 10^-3 M using tyramine hydrochloride as substrate after 30 mins by Amplex Red reagent based horseradish peroxidase enzyme-coupled fluorescence assay relative to control; conditions: 0.5 h

SMILES	Ratio IC50 (Homo sapiens)	inhibition (INH) [1] [%]	IC50 [2] [µM]	IC50 [3] [µM]	inhibition (INH) [4] [%]
N#Cc1ccc(-c2csc(N/N=C/c3ccc(N4CCOCC4)cc3)n2)cc1	0.795	> 50	42.9	54	> 50
C(=N\Nc1nc(-c2ccccc2)cs1)/c1ccc(N2CCCC2)cc1	> 39.1	> 50	> 1000	25.6	
Fc1ccc(-c2csc(N/N=C/c3ccc(N4CCCC4)cc3)n2)c(F)c1	9.03	> 50	141	15.6	> 50
Cc1ccc(-c2csc(N/N=C/c3ccc(N4CCOCC4)cc3)n2)cc1	> 96.2	> 50	> 1000	10.4	
Brc1ccc(-c2csc(N/N=C/c3ccc(N4CCCC4)cc3)n2)cc1	> 16.3	> 50	> 1000	61.3	
Clc1ccc(-c2csc(N/N=C/c3ccc(N4CCOCC4)cc3)n2)cc1	52.8	> 50	558	10.6	> 50
C(=N\Nc1nc(-c2ccccc2)cs1)/c1ccc(N2CCOCC2)cc1	> 87.8	> 50	> 1000	11.4	
Fc1ccc(-c2csc(N/N=C/c3ccc(N4CCCC4)cc3)n2)cc1	32.5	> 50	426	13.1	> 50
